{"source": "patent US9957484B2", "about": "“Methods for promoting cell reprogramming” (Sanford-Burnham Medical Research Institute, priority 2011, dated 2018)", "origin": "cited, not measured here", "conditions_in_all_cases": "kind of value not given; cited from earlier work", "key": {"Lck": {"target": "Lck (Homo sapiens, UniProt P06239)", "sequence (P06239 whole entry)": "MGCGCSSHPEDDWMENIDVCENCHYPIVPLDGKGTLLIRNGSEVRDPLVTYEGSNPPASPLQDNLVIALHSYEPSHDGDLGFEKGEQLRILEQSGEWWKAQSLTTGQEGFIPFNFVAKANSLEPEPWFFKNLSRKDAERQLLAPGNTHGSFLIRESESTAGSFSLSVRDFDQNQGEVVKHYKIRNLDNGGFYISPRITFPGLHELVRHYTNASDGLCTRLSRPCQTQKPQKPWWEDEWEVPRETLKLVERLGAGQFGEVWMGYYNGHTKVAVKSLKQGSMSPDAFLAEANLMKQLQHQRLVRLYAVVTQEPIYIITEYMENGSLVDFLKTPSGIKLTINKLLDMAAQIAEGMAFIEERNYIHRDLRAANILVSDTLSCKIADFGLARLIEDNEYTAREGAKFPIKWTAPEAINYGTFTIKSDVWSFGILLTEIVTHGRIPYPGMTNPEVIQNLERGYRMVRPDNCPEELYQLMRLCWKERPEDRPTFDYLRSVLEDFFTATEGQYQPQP"}, "PKCα": {"target": "PKCα (Homo sapiens, UniProt P17252)"}, "PKCβ": {"target": "PKCβ (Homo sapiens, UniProt P05771)", "sequence (P05771 whole entry, species assumed)": "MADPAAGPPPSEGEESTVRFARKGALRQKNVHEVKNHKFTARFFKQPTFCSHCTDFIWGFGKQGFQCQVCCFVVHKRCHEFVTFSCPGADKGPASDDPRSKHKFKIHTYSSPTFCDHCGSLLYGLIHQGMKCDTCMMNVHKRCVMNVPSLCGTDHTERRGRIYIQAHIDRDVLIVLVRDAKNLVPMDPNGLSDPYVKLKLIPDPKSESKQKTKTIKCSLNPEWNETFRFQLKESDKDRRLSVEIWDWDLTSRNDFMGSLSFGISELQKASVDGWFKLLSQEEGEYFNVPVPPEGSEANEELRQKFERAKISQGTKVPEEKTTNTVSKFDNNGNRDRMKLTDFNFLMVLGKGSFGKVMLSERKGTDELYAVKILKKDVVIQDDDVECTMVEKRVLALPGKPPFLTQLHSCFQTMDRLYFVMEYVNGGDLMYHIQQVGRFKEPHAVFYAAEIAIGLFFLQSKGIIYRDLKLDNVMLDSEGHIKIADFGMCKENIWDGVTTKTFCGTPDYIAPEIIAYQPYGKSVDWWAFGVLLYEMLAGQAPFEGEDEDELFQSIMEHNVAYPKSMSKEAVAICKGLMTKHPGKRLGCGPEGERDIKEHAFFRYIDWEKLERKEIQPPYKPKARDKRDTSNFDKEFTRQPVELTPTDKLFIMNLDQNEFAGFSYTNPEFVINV"}, "PKCγ": {"target": "PKCγ (Homo sapiens, UniProt P05129)"}, "PKCδ": {"target": "PKCδ (Homo sapiens, UniProt Q05655)", "sequence (Q05655 whole entry)": "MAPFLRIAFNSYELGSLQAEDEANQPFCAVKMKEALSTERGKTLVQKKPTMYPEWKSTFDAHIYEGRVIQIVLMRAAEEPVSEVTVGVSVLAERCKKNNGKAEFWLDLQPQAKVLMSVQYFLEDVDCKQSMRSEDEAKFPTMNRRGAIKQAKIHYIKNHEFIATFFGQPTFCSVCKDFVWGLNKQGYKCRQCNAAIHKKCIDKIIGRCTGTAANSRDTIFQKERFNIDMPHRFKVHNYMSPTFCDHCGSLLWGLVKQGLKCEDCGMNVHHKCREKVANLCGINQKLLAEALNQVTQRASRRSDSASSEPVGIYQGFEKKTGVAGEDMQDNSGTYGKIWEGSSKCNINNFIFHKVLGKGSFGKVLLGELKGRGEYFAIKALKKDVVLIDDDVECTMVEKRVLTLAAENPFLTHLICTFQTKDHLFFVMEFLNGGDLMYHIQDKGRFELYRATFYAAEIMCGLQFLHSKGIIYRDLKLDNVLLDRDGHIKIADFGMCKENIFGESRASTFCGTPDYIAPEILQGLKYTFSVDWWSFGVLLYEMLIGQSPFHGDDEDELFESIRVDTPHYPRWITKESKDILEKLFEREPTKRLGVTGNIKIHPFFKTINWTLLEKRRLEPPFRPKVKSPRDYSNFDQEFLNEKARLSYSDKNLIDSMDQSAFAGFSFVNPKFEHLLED"}, "Chk1": {"target": "Chk1 (Homo sapiens, UniProt O14757)", "sequence (O14757 whole entry, species assumed)": "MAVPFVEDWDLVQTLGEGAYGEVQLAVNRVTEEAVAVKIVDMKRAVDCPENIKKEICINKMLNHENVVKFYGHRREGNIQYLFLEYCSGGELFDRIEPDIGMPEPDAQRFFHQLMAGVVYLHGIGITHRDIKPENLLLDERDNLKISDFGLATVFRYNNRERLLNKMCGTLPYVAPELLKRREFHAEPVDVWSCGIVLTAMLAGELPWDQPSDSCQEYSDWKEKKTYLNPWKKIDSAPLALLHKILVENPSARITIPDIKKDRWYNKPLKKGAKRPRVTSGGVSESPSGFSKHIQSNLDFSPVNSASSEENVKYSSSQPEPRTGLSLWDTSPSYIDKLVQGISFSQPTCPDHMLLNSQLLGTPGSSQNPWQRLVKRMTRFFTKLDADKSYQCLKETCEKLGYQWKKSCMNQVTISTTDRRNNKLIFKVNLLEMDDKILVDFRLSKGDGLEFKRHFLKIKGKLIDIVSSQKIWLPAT"}, "[1]": {"target": "Cdc25C-associated protein kinase 1 (Homo sapiens, UniProt P27448)"}, "Cdk1": {"target": "Cdk1 (Homo sapiens, UniProt P06493)"}, "PAK4": {"target": "PAK4 (Homo sapiens, UniProt O96013)", "sequence (O96013 whole entry, species assumed)": "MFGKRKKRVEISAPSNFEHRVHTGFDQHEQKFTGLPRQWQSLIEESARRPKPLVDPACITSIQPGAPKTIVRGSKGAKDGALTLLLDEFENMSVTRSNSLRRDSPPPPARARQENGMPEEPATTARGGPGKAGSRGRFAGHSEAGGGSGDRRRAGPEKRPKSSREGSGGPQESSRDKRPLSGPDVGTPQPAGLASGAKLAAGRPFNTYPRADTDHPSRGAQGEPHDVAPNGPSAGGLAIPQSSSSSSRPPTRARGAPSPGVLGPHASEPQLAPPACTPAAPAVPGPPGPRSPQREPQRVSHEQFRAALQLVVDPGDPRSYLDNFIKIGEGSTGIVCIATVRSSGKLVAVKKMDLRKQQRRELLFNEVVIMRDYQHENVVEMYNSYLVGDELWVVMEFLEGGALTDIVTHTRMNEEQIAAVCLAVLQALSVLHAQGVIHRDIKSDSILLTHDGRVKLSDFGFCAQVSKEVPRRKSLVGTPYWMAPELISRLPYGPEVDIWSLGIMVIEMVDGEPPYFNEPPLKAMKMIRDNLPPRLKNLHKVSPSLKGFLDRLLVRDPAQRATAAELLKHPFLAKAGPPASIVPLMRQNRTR"}, "Cdk5/p25": {"target": "Cdk5/p25 (Homo sapiens, UniProt Q00535)", "sequence (Q00535 whole entry, species assumed)": "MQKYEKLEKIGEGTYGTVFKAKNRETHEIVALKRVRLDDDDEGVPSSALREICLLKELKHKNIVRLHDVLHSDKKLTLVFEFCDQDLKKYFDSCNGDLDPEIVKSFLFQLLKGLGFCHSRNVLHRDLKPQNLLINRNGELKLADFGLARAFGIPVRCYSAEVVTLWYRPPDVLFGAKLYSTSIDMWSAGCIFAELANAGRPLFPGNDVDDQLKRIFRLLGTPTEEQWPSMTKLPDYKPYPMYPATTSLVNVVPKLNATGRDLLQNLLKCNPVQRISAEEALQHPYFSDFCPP", "sequence (Q15078 99-307 partner limits assumed, species assumed)": "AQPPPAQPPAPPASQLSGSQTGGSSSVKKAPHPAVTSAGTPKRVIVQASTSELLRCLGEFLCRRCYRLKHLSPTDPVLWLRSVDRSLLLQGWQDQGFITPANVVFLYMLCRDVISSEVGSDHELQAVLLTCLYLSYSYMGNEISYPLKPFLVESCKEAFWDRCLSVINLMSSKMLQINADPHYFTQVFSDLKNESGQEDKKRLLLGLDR"}, "Chk2": {"target": "Chk2 (Homo sapiens, UniProt O96017)", "sequence (O96017 whole entry, species assumed)": "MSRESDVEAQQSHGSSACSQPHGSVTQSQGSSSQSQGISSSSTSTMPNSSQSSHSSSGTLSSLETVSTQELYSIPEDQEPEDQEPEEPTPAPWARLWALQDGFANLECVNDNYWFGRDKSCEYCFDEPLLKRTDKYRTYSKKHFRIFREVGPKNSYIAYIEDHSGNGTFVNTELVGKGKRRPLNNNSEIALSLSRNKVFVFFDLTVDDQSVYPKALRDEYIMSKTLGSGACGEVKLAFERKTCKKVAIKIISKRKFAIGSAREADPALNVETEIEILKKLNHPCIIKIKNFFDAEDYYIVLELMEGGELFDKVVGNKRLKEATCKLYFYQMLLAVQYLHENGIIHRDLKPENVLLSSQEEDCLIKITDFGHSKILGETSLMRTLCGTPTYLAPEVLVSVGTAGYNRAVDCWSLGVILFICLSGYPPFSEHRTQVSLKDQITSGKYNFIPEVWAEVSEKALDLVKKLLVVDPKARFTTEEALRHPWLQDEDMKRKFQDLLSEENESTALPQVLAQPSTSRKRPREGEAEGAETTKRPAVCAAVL"}, "PDK1": {"target": "PDK1 (Homo sapiens, UniProt O15530)"}, "MAPKAP kinase-2": {"target": "MAPKAP kinase-2 (Homo sapiens, UniProt P49137)"}, "MEK1": {"target": "MEK1 (Homo sapiens, UniProt Q02750)"}, "myosin II heavy chain": {"system": "myosin II heavy chain"}}, "data": [{"smiles": "CN[C@@H]1C[C@H]2O[C@@](C)([C@@H]1OC)n1c3ccccc3c3c4c(c5c6ccccc6n2c5c31)C(=O)N[C@@H]4O", "note": "[BIM-0207189, UCN-01]", "values": [{"measurement": "Potential Targets: Lck", "setting": "Lck", "value": 50, "unit": "nM"}, {"measurement": "Potential Targets: PKCα", "setting": "PKCα", "value": 9, "unit": "nM"}, {"measurement": "Potential Targets: PKCβ", "setting": "PKCβ", "value": 34, "unit": "nM"}, {"measurement": "Potential Targets: PKCγ", "setting": "PKCγ", "value": 30, "unit": "nM"}, {"measurement": "Potential Targets: PKCδ", "setting": "PKCδ", "value": 590, "unit": "nM"}, {"measurement": "Potential Targets: Chk1", "setting": "Chk1", "value": 7, "unit": "nM"}, {"measurement": "Potential Targets: Cdc25C-associated protein kinase 1", "setting": "[1]", "value": 27, "unit": "nM"}, {"measurement": "Potential Targets: Cdk1", "setting": "Cdk1", "value": 50, "unit": "nM"}, {"measurement": "Potential Targets: PAK4", "setting": "PAK4", "value": 50, "unit": "nM"}, {"measurement": "Potential Targets: Cdk5/p25", "setting": "Cdk5/p25", "value": 150, "unit": "nM"}, {"measurement": "Potential Targets: Chk2", "setting": "Chk2", "value": "1.04 μM for Chk1, Cdc25C-"}, {"measurement": "Potential Targets: PDK1", "setting": "PDK1", "value": 33, "unit": "nM"}, {"measurement": "Potential Targets: MAPKAP kinase-2", "setting": "MAPKAP kinase-2", "value": 95, "unit": "nM"}]}, {"smiles": "c1nc2nc(Nc3ccc(N4CCOCC4)cc3)nc(NC3CCCCC3)c2[nH]1", "note": "[BIM-0207192, Reversine]", "values": [{"measurement": "Potential Targets: MEK1", "setting": "MEK1", "value": "MEK1 (8 nM), myosin II heavy"}, {"measurement": "Potential Targets: myosin II heavy chain", "setting": "myosin II heavy chain", "value": "chain (10 nM), Aurora kinases"}]}]}
